Measured values as given in article PMC7913881, “The First Step of Biodegradation of 7-Hydroxycoumarin in Pseudomonas mandelii 7HK4 Depends on an Alcohol Dehydrogenase-Type Enzyme” (International Journal of Molecular Sciences, 2021).

What was measured:
[1] = biological target: T1, (UniProt A0A890JDX9); experiment: spectrophotometric NADPH oxidation kinetics with purified enzyme; substrate and substrate inhibitor; type: biochemical, Pseudomonas mandelii
T1 construct: gene hcdE; recombinant C-terminally His6-tagged protein
From the text: spectrophotometric NADPH oxidation kinetics with purified enzyme; substrate and substrate inhibitor on HcdE | 7-hydroxycoumarin was likely a pseudo-competitive inhibitor characterized by the inhibition constant Ki

[2] = tested on: NC(=O)C1=CN([C@@H]2O[C@H](COP(=O)(O)OP(=O)(O)OC[C@H]3O[C@@H](n4cnc5c(N)ncnc54)[C@H](OP(=O)(O)O)[C@@H]3O)[C@@H](O)[C@H]2O)C=CC1; experiment: purified protein; details: varied: cofactor

T1 sequence (A0A890JDX9 1-376 limits assumed): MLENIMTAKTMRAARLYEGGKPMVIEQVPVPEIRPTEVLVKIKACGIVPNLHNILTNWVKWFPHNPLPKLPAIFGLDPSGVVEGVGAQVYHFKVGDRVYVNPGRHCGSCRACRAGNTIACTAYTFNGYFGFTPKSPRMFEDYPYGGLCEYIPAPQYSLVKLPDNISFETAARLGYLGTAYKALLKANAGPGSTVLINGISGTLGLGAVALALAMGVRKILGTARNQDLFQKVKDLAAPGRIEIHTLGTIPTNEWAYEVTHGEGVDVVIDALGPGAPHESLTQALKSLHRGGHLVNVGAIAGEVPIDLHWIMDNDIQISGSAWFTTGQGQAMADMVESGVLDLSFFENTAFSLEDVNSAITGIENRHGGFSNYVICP

Compound	Ki [1]	Km [2]
O=c1ccc2ccc(O)cc2o1 [compound 1, 7-hydroxycoumarin]	22 mM	–
HcdE (Pseudomonas mandelii)	–	20 µM
